Values joined by “and” are separate entries in the source; they are usually repeats but may differ in a detail not shown here. Equal values may be shown once.

One series concerns patients with early DR. As to conditions: cited from earlier work.
Series [1] has as its system human retinal endothelial cells. Conditions: rapidly proliferating cells, in vitro; cited from earlier work.
In series [2] the test system is patients with type I diabetes and severe non-proliferative DR or non-"high risk" proliferative DR. In words: Phase I human study: octreotide plus conventional diabetes management versus conventional management alone, 15 months. Format: in vivo. The text has this: A total of 39 patients with type I or type II diabetes and diagnosed with either severe non-proliferative DR or non-“high risk” proliferative DR were enrolled between 1991 and 1996 into Phase I or Phase II of the study. Subjects were recruited from patients treated for diabetes mellitus at the University of Florida Adult Endocrinology clinics and referrals from community retinal specialists. All patients provided written informed consent to participate in required study procedures. Volunteers in both phases of the study were randomized to receive conventional diabetes management alone (control group) or octreotide treatment with conventional diabetes care (OCT group). Octreotide was administered via subcutaneous injection 4 times daily or via continuous subcutaneous infusion with doses individually adjusted to the highest tolerated somatostatin analogue levels. The intent was to increase the dose of octreotide until serum IGF-1 was decreased to the hypopituitary range of 75 ng/mL or drug related adverse effects limited octreotide dosing. […] It was expected that approximately 35 to 50% of the control group would progress to photocoagulation within the 15-month period (The Diabetic Retinopathy Study Research Group: Indications for photocoagulation treatment of diabetic retinopathy: Diabetic Reinopathy Study Report No. 14. Int. Opthalmol. Clin. 27:239 (1987)).
Subjects were evaluated at monthly intervals for ocular changes using procedures established in the Early Treatment Diabetic Retinopathy Study (ETDRS) trial (Techniques for scatter and local photocoagulation treatment of diabetic retinopathy. Early Treatment Diabetic Retinopathy Study Report No. 3. The Early Treatment Diabetic Retinopathy Study Research Group. Int Ophthalmol Clin. 27:254-64 (1987)). Ocular examination included fluorescein angiograms and stereoscopic fundis photographs using seven standard photographic fields. Each field was 30 degrees with the first 2 fields centered on the disc and macula. The other fields imaged the surrounding retina. Photographs were assessed for severity of retinopathy using an extension of the modified Airlie House classification scheme. Severe non-proliferative DR required the presence of at least 3 of the following characteristics: cotton wool patches, venous beading, intraretinal microvascular abnormalities (IRMA) or extensive retinal hemorrhages. Inclusion criteria also required understanding the study protocol and willingness to participate in required study procedures. Exclusion criteria included: current use of tobacco products, regular medication other than prescribed antidiabetic agents and thyroxine, history of psychiatric illness, illicit drug use, sitting diastolic blood pressure values greater than […], serum creatinine clearance below 30 ml/min, and a body mass index that differed more than 20% from normal published ranges for the subject's height and sex.
Sixteen subjects with Type I diabetes participated in and completed the Phase-I protocol, with 8 patients randomly assigned to conventional diabetes management and 8 patients assigned treatment with maximally tolerated doses of octreotide in conjunction with routine diabetes management.
Initial octreotide doses of 500 μg/day were escalated based on IGF-1 levels to a maximum of 3000 μg/day during the 15-month treatment period. The range of maximally tolerated octreotide doses used throughout the 15-month treatment period was 600 to 3000 μg/day. The Phase protocol included a 5-day evaluation period with patients confined to the clinical research unit at study initiation. Octreotide treated patients were monitored for response to the initial 500 μg/day dose of octreotide (administered as a constant subcutaneous infusion). GH secretion was quantified from area under the serum concentration versus time curve (AUC) for blood samples collected every 2 to 4 hours throughout a 24-hour period. […]

For series [3], the system named is patients with Type I or Type II diabetes and severe non-proliferative DR or non-"high risk" proliferative DR. The series is described as follows: Phase II human study: octreotide plus thyroid hormone (levothyroxine) versus conventional diabetes management, 15 months. Type of series: in vivo. Conditions: thyroxine alone 100 to 200 μg/day for hypothyroidism, no octreotide. The text has this: A total of 39 patients with type I or type II diabetes and diagnosed with either severe non-proliferative DR or non-“high risk” proliferative DR were enrolled between 1991 and 1996 into Phase I or Phase II of the study. Subjects were recruited from patients treated for diabetes mellitus at the University of Florida Adult Endocrinology clinics and referrals from community retinal specialists. All patients provided written informed consent to participate in required study procedures. Volunteers in both phases of the study were randomized to receive conventional diabetes management alone (control group) or octreotide treatment with conventional diabetes care (OCT group). Octreotide was administered via subcutaneous injection 4 times daily or via continuous subcutaneous infusion with doses individually adjusted to the highest tolerated somatostatin analogue levels. […]
Subjects were evaluated at monthly intervals for ocular changes using procedures established in the Early Treatment Diabetic Retinopathy Study (ETDRS) trial (Techniques for scatter and local photocoagulation treatment of diabetic retinopathy. Early Treatment Diabetic Retinopathy Study Report No. 3. The Early Treatment Diabetic Retinopathy Study Research Group. Int Ophthalmol Clin. 27:254-64 (1987)). […] Photographs were assessed for severity of retinopathy using an extension of the modified Airlie House classification scheme. […]

[4] abbreviates: octreotide treated group, p<0.05 vs conventionally treated group.

With `C[C@@H](O)[C@@H]1NC(=O)[C@H](CCCCN)NC(=O)[C@@H](Cc2c[nH]c3ccccc23)NC(=O)[C@H](Cc2ccccc2)NC(=O)[C@@H](NC(=O)[C@H](N)Cc2ccccc2)CSSC[C@@H](C(=O)N[C@H](CO)[C@@H](C)O)NC1=O` [octreotide], the “retinal disease versus conventionally managed patients” value in the series with patients with early DR (early DR, one year, 400 μg/day) is listed as “no difference”. Besides, the thyroid adverse finding entry with patients with early DR (infused for one year with 400 μg/day, no evidence for clinical significance) is given as “mild hypothyroidism”. Also, the “effect on IGF-I and b-FGF stimulated growth of cells” value in series [1] is listed as “direct inhibitory effects”. In series [2] (8 patients per group, control also 4 of 8), the “patients requiring PRP during the 15-month study” value was “Four and 4 of 8”. Moreover, the “mean time for disease progression to laser surgery (PRP)” value in series [2] (control 6.0 months, not different) was 8.5 months. Moreover, in series [2] (conventional management 8.1%±1.8%, p<0.05), the “mean HbA1c after at least 3 months of study” value is 6.4%±0.9. Also, in series [2] (initial 500 μg/day constant subcutaneous infusion, day 5 of treatment, compared to control, p<0.05), the “mean decrease in 24 hour AUC for GH (GH secretion)” value was 33%. The “patients with IGF-1 decreased into the hypophysectomized range of 75 ng/ml” value in series [2] (maximally tolerated doses 600 to 3000 μg/day) is recorded as 1 of 8. Also, in series [2] (maximally tolerated octreotide in the absence of thyroid hormone replacement), the “effect on progression of DR” value is recorded as “not effective in retarding progression of DR”. In addition, in series [2] (octreotide 600 to 3000 μg/day, 15 months, decreased from 241±58 ng/ml at study enrollment, p<0.05 vs control), the “mean IGF-1 at the end of treatment” value worked out at 130 ± 38 ng/mL. For the same compound, in series [2] (setting [4]), the “decrease in insulin requirements” value was determined as 29% and the improvement in proteinuria turned out to be 82%.
For `N[C@@H](Cc1cc(I)c(Oc2cc(I)c(O)c(I)c2)c(I)c1)C(=O)O` [thyroxine, levothyroxine], in series [3], the “control patients receiving thyroxine who required PRP” value is 3 of the 7.

The values are drawn from patent US6852688B2, “Compositions for treating diabetic retinopathy and methods of using same” (University of Florida, priority 2000, dated 2005).
